The text below walks through data of publication PMC4718634, “Murine GPRC6A Mediates Cellular Responses to L-Amino Acids, but Not Osteocalcin Variants” (PLoS ONE, 2016).

The test system of experiment [1] is β-TC6 cells. Kind of experiment: Insulin release from β-TC6 cells. In kind it is cell-based, murine. To be noted: S3 Fig A. The procedure:
MIN6 or βTC-6 cells were seeded in 24-well plates at 170,000 cells per well in DMEM (containing 4.5g/L glucose, 10 mM HEPES, 100 U/ml penicillin, 100 μg/ml streptomycin and 15% de-complemented FBS) and incubated at 37°C / 5% CO2 for 72 h. Cells were then washed with 500 μl PBS and incubated in 500 μl deprivation media (DMEM with zero glucose, 10 mM HEPES, 1 mM Na-pyruvate, 100 U/ml penicillin, 100 μg/ml streptomycin, 15% de-complemented FBS) for 2 h at 37°C. Media was aspirated and after washing with 500 μl PBS, cells were treated with 250 μl of Krebs buffer (250 mM NaCl, 5.9 mM KCl, 1.2 mM MgCl2, 1.3 mM CaCl2, 25 mM HEPES, 0.1% BSA (w/v), and 2 mM or 16.7 mM glucose; pH 7.4) in the presence or absence of test compound. After incubation for 2 h at 37°C, the assay was terminated by placing the plates on ice and supernatants were transferred to a 96-well plate in preparation for insulin ELISA (Alpco) following manufacturer’s instructions. The cell monolayer was washed twice with 500 μl of PBS and then lysed using 250 μl of 1 N NaOH prior to protein measurement by the method of Bradford (1976).
Concentration-response data were analysed using a three or four parameter logistic function (Motulsky & Christopoulos, 2004) to generate estimates of agonist potency (LogEC50). Data for all HEK293 assays represent the mean ± SEM of at least three independent experiments (except cell impedance, n = 2). For GLP-1 release, the data represent mean ± SEM of three to five independent experiments (except for OCN, wash; n = 2). For insulin release assays, data represent the mean ± SEM of three independent experiments (except for islet studies; n = 2). Insulin release data were normalised to the response to vehicle in either low or high [glucose]. Statistical analysis for GLP-1 release data were performed by one-way ANOVA, followed by Sidak’s multiple comparisons test (treating wash / no wash datasets separately). Statistical analyses for insulin release data were performed by two-way ANOVA (with [glucose] and drug treatment as group variables), followed by Sidak’s multiple comparisons test. Where only high [glucose] groups were evaluated, statistical analysis was by one-way ANOVA followed by Sidak’s multiple comparisons test.

For experiment [2], the target named is T1, mGPRC6A (mouse GPRC6A) (Mus musculus, UniProt Q8K4Z6).
T1 sequence (Q8K4Z6 21-928): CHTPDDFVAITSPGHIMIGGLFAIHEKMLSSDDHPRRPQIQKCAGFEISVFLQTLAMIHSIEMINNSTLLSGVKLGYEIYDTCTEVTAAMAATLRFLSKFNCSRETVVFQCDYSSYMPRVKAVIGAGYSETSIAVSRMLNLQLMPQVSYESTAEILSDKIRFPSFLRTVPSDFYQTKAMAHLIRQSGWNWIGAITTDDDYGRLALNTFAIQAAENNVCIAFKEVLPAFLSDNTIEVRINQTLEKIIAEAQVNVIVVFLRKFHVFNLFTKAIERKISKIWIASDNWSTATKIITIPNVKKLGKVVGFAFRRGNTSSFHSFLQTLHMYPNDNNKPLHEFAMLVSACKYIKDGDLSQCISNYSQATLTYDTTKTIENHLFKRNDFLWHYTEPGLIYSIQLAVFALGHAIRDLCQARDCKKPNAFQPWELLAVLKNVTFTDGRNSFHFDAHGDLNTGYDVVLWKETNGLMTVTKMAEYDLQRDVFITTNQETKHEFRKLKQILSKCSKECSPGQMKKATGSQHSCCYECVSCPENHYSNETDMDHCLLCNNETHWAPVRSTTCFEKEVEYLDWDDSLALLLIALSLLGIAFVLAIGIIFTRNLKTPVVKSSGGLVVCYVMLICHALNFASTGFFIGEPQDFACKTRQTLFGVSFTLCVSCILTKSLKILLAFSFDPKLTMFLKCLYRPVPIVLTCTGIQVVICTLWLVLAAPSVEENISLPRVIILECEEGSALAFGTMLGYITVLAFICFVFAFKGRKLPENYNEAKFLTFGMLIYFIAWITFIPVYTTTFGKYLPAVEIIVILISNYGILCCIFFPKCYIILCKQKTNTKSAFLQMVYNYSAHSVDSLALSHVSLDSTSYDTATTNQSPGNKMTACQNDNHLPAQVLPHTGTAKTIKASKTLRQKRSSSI
As to the kind of experiment: ERK1/2 phosphorylation, FlpIn-TREx-HEK293-mGPRC6A cells. In kind it is cell-based. The procedure:
pcDNA 5/FRT/TO constructs were isogenically integrated into a FlpIn-TREx-HEK293 cell line (Life Technologies). FlpIn-TREx-HEK293-mGPRC6A and FlpIn-TREx-HEK293-hGPRC6A cells were then selected using 600 μg/ml hygromycin and 5 μg/ml blasticidin and grown in culture medium consisting of Dulbecco’s Modified Eagle Medium (DMEM), supplemented with 10% (v/v) foetal bovine serum (FBS) at 37°C in 5% CO2 and were sub-cultured in a 1:3 ratio every 3–4 days. Cells were cultured overnight in the presence of 1 μg/ml tetracycline to induce GPRC6A expression. […] 48 h after transfection, cells were selected using 3 μg/ml puromycin and grown as above.
Cells were then stimulated with ligand at various time points and incubated at 37°C in 5% CO2. 10% FBS (v/v) was used as a positive control. The reaction was terminated by removal of compounds and lysis of cells with SureFire lysis buffer (TGR Biosciences). The lysates were then treated as per the SureFire ERK1/2 kit instructions. Plates were incubated in the dark at 37°C for 1 h, then left to equilibrate with the ambient temperature before the fluorescence signal was measured using a Fusion plate reader (PerkinElmer) with standard AlphaScreen settings. Data were normalised to the maximal response elicited by 10% FBS (v/v) at the same time point.

Experiment [3] relates to MIN6 cells. Kind of experiment: Insulin release from MIN6 cells. In kind it is cell-based, murine. In a few lines:
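After 72 h culture and 2 h glucose-free deprivation, cells exposed to compound for 2 h at 37°C in Krebs buffer pH 7.4 with 2 mM or 16.7 mM glucose. Secreted insulin measured by ELISA, normalised to vehicle at matching glucose; LogEC50 from three- or four-parameter logistic fit.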

The subject of experiment [4] is mC6A. Particulars: cited from earlier work. From the text:
Supplement pone.0146846.s004.docx, table 1 | column: Functional assay

Entries after “also recorded” stand apart in the source; their conditions may differ. Where two headings read alike, the source gives them in different places.

As to “OCN: osteoblast-derived peptide, osteocalcin; variant not specified at the place (YLYQWLGAPVPYPDPLEPRREVCELNPDCDELADHIGFQEAYRRFYGPV; UniProt P02818 52-100, looked up)”, the “insulin secretion, OCN” value in experiment [1] (OCN 0.03–100 ng/ml, both glucose concentrations) is “no effect on insulin release; also recorded: failed to induce GSIS”. Also, the “pERK1/2 response (summary)” value in experiment [2] (S1 Table) is “no response”. In experiment [3] (mouse OCN 0.03–30 ng/mL, 0.03–100 ng/mL (Fig 6B legend), low and high glucose), the “insulin secretion, OCN” value is listed as “failed to induce GSIS”. In addition, the “IP-One HTRF response to EC25 L-Orn + OCN” value in experiment [4] (+ GqG66D, ref [13] (supplement list)) is recorded as “No response”. The cAMP accumulation response entry in experiment [4] (ref [5] (supplement list)) is listed as “cAMP accumulation in response to OCN”. Moreover, in experiment [4] (ref [13] (supplement list)), the “IP-One HTRF response” value is on record as “No response”, the cAMP response entry is given as “no response” and the pERK response result is given as “No specific response”.

Regarding `NCCC[C@H](N)C(=O)O` [L-ornithine], the “glucose-sensitive insulin secretion, L-ornithine” value in experiment [1] (L-ornithine 20 mM) is reported as “no significant effect”. Besides, the “stimulation of ERK1/2 phosphorylation” value in experiment [2] (without GαqG66D, L-ornithine 1 mM, OCN variants 40 ng/ml, Fig 3B) is “Neither L-ornithine (1 mM) nor OCN variants (40 ng/ml) stimulate ERK1/2 phosphorylation; also recorded: no detectable modulation of cAMP accumulation or phosphorylation of ERK1/2”. In addition, the glucose-sensitive insulin secretion result in experiment [3] (L-ornithine 20 mM, 16.7 mM glucose, P < 0.01 vs Vehicle, 2 h, ELISA, Fig 6B) is given as “significantly increased glucose-sensitive insulin secretion; also recorded: could be increased by L-ornithine”. The cAMP response entry in experiment [4] (ref [3] (supplement list)) is “[^3H]IP turnover - co-transfection with Gαqs5, GαqG66D, Gαq or GαqG66Ds5 enabled response to L-aa but Gαqi, Gαqz, Gαqo did not cAMP – no increase or decrease in response to L-Orn”. Besides, in experiment [4] (ref [13] (supplement list)), the cAMP response result is “no response” and the pERK response result is reported as “response”.
